The values that follow come from US9289383B2, “Method of reducing intraocular pressure in humans” (Inotek Pharmaceuticals Corporation, priority 2010, dated 2016).

Where two headings read alike, the source gives them in different places.

Data set [1] relates to optic nerve head tissue blood flow. Conditions: 10 nmol, injected intravitreally, rabbits; cited from earlier work.
The test system of data set [2] is intraocular pressure. Conditions: topical in DMSO, three mice, cited from earlier work.
Data set [3] in a line: In vivo study of CPA concentration in the anterior chamber after topical administration to the cornea. Conditions: Dutch Belted rabbits, topical to the cornea (FIG. 4).
In data set [4] the test system is intraocular pressure. Conditions: CPA 165 μg; cited from earlier work.
Data set [5] can be described thus: In-vitro cornea permeability study (vertical diffusion apparatus). The conditions noted are these: for CPA levels detected on the other side of the cornea membrane (receiver chamber): compound applied to donor side of rabbit cornea membrane, GBR buffer pH 7.4, 37° C.; for cornea permeability: topical delivery to cornea. It is filed as in vitro ADME, rabbit. The protocol:
The compounds (2a) and (2g) were prepared in powder form by Inotek Pharmaceuticals Corp. (Lexington, Mass.). Low-permeability control compound atenolol and all other chemicals were purchased from Sigma (St. Louis, Mo.). The buffer used in the permeability assessment was a glutathione-bicarbonated Ringer's (GBR) solution (110 mM NaCl, 5 mM KCl, 1 mM NaH2PO4, 30 mM NaHCO3, 1 mM CaCl2, 0.75 mM Mg Cl2, 5 mM D-glucose, and 0.3 mM reduced glutathione), pH 7.4, which was freshly prepared on the day of the experiment and oxygenated with O2/CO2 (95:5) to pH 7.4.
The compounds (2a) and (2g) were reconstituted in saline and diluted (10-fold) into the assay at a final concentration between 50 μM and 2.6 mM. Male Dutch-belted pigmented rabbits (1.5-2.5 kg body weight, 3-3.5 months old) were purchased from Covance Research Products Inc. (Denver, Pa.). The animal handling performed in this study conformed to the Guiding Principles in the Care and Use of Animals (DHEW Publication, NIH 80-23). The rabbits were euthanized by CO2 asphyxiation, and the heads were transported on ice to a testing facility, where dissection of the eyes was performed.
The corneal tissues were excised and mounted on a Harvard vertical diffusion apparatus as shown in FIG. 3 with a diffusion area of 0.64 cm2. Preheated (37° C.), pH 7.4. GBR buffer was added to the mucosal (1.5 mL) and the serosal (1.5 mL) chambers. The diffusion apparatus was maintained at 37° C. throughout the entire transport experiment. Oxygenation and agitation were achieved by bubbling O2/CO2 (95:5) through each chamber at a rate of 5-6 bubbles per second. After the 30-minute equilibration, blank GBR buffer in the mucosal (donor) chamber was withdrawn and replaced with GBR assay buffer containing the compound (2a) or the compound (2g). The transport experiments lasted 2 hours and were performed in duplicate. Every 60 minutes, 0.2-mL samples were collected from the serosal (receiver) chamber and replenished with 0.2-mL blank GBR buffer, except at the last time point; at the end of the experiment, samples were also collected from the mucosal (donor) chambers for mass balance determination.
After the transport experiment, tissue integrity (system suitability) was assessed by measuring the permeation of a low permeability control compound, atenolol, across the tissue. Donor chamber contents were replaced with GBR buffer containing 100μM atenolol, and receiver chambers were replaced with fresh blank GBR buffer. After 30 minutes of incubation, samples were collected from both chambers for analysis. The post-experimental system suitability assessment was considered acceptable if duplicate measurements yielded a mean apparent permeability (Papp) value for atenolol <1·10^−6 cm/s.
Compound A and compounds (2a) and (2g) and atenolol concentrations in the donor and receiver chambers were analyzed by LC-MS/MS methods. Apparent permeability (Papp) values were calculated using the following equation: Papp=(dCr/dt)·Vr/(A·C0)
Where, dCr /dt was the slope of the linear portion of the cumulative concentration in the receiver compartment over time in μM/sec, Vr was the volume of the receiver chamber in cm^3, A was the diffusion area in cm^2, and C0 was the measured dosing concentration in μM.
Recovery was calculated using the following equation: Recovery=100·([…])/(Vd·C0)
Where, Vr was the volume of the receiver compartment in cm^3, Vd was the volume of the donor compartment in cm^3, C0 was the dosing concentration in μM, Cr^final was the cumulative receiver concentration in μM and Cd^final was the donor concentration in μM at the end of the incubation.

Data set [6] deals with intraocular pressure. Briefly: IOP of human subjects after topical administration of Compound A to the cornea. It is filed as in vivo. The source says:
As a result of this analysis, CPA has been identified as an active metabolite in clinical studies after the topical administration of Compound A to the cornea of human subjects.

A short description of data set [7]: Analysis of human plasma after topical administration of Compound A. It is filed as in vivo. Conditions: human subject, topical to the cornea, LC/MS/MS. The protocol: After the administration of Compound A topically to a cornea of a human, at selected time points (e.g., Day 1: pre-dose, 5, 15, 25, 35. and 45 min and 1, 2, 4, 8 and 24 hours) samples of whole blood (10 mL) were collected for pharmacokinetic assessments using a vacutainer tube containing sodium heparin as an anticoagulant, via catheter, saline lock, or by venipuncture. The blood components were separated by centrifugation at 4° C. following standard clinical laboratory procedures for preparation of plasma from whole blood (e.g., 3000 rpm for approximately 10 min). For each sample, approximately 1 mL of plasma was stored at −20° C. or colder until analysis for Compound A and CPA concentration. Human plasma samples were analyzed for Compound A concentrations using a validated liquid chromatography/tandem mass spectrometry (LC/MS/MS) method with a lower limit of quantitation (LLOQ) of 10.0 pg/mL and a linear range from 10.0 to 2000 pg/mL. Plasma concentrations of (N(6)-cyclopentyladenosine, CPA) were also measured in some samples using a validated LC/MS/MS method with a lower limit of quantitation of 10.0 pg/mL and a linear range from 10.0 to 2000 pg/mL.

As for `OC[C@H]1O[C@@H](n2cnc3c(NC4CCCC4)ncnc32)[C@H](O)[C@@H]1O` [CPA, N^6-cyclopentyladenosine], the “optic nerve head tissue blood flow” value in data set [1] is given as “increased the optic nerve head tissue blood flow”. Moreover, the results for the “change in IOP” value with intraocular pressure [2] (CPA at 100 nM) and in the data set with intraocular pressure [2] (CPA at 1 mM) were −6.8 mm Hg and −1.0 mm Hg, respectively. In data set [3], the “concentration of CPA in the anterior chamber over time” value is “build up in concentration of CPA in the anterior chamber over time”. In addition, the “effect on rabbit IOP” value with intraocular pressure [4] was “reduction of rabbit IOP”. The “CPA levels detected on the other side of the cornea membrane (receiver chamber)” value (shortened to “CPA levels detected on the other side”) in data set [5] is recorded as “much less than that detected when Compound A is topically applied to the cornea”. Moreover, in data set [5], the cornea permeability result was “does not have sufficient cornea permeability”.

For `CC(C)C(=O)OC[C@H]1O[C@@H](n2cnc3c(NC4CCCC4)ncnc32)[C@H](O)[C@@H]1O` [Compound 2a, N^6-Cyclopentyl-5′-O-isobutyryl-adenosine], in data set [5], the “CPA levels detected on the other side” value was “significant levels of CPA were measureable” and the cornea permeability entry is “significant cornea permeability”.

Take `CCCCCCCC(=O)OC[C@H]1O[C@@H](n2cnc3c(NC4CCCC4)ncnc32)[C@H](O)[C@@H]1O` [Compound 2g, N^6-Cyclopentyl-5′-O-octanoyl-adenosine]: in data set [5], the “CPA levels detected on the other side” value is on record as “significant levels of CPA were measureable” and the cornea permeability entry is listed as “significant cornea permeability”.

Turning to `O=[N+]([O-])OC[C@H]1O[C@@H](n2cnc3c(NC4CCCC4)ncnc32)[C@H](O)[C@@H]1O` [Compound A, ((2R,3S,4R,5R)-5-(6-(cyclopentylamino)-9H-purin-9-yl)-3,4-dihydroxytetrahydrofuran-2-yl)methyl nitrate], in the data set on intraocular pressure [6], the “IOP course after buildup of CPA in plasma” value is listed as “continues to decline” and the “transient elevation in IOP” value is “no transient elevation in IOP is seen”. The “concentration of CPA in the anterior chamber over time” value in data set [3] is reported as “build up in concentration of CPA in the anterior chamber over time”. Moreover, the “CPA in plasma after administration of Compound A” value in data set [7] is “detection of CPA in the plasma”. Besides, the “CPA levels detected on the other side” value in data set [5] is on record as “significant levels of CPA on the other side of the cornea membrane”.
